From patent publication US8461160B2, “Dihydropyrimidinones” (Hoffmann-La Roche, Inc., priority 2009, dated 2013)

Target: T1, BACE2 (Homo sapiens, UniProt Q9Y5Z0)
T1 construct: BACE2 enzyme ectodomain (derived from plasmid “pET17b-T7-hu proBACE2”) was prepared as described in Ostermann et al; T7 tag (N); made in house
T1 sequence (Q9Y5Z0 21-473 limits assumed): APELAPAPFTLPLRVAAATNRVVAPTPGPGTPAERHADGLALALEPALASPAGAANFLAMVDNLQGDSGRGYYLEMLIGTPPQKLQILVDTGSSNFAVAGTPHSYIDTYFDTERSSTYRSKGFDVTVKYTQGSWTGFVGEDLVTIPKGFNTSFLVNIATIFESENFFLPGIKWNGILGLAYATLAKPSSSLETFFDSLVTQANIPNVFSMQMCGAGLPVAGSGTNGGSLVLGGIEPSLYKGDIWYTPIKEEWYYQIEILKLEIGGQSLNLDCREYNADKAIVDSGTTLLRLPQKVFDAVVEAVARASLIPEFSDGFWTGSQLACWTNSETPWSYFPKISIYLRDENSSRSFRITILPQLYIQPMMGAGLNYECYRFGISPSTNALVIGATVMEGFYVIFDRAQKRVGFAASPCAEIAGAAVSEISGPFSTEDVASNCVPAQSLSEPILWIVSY
Test: Fluorescent-peptide cleavage assay for BACE2 inhibition
Assay type: biochemical
Details: BACE2 enzyme ectodomain, fluorescent peptide WS EVNLD AEFRC-MR121, assay buffer pH 4.5, room temperature
Method: Fluorescent-Peptide Cleavage Assay for BACE2 Inhibition
The pro-enzyme was stored at 4° C. at a concentration of 70 μg/ml.
A fluorescent peptide with the amino acid sequence WS EVNLD AEFRC-MR121 was synthesised and a stock solution of 1.5 mM in DMSO prepared and stored at −20° C. MR121 is a fluorophore with an excitation wavelength of 630 nm and emission wavelength of 695 nm. The MR121 fluorescence is quenched by the N-terminal tryptophan until the peptide is cleaved by BACE2.
Assays were all made in a Corning 384-well black polystyrene non-binding surface microtitre plate with clear flat bottom and using a Plate:Vision (Perkin Elmer) fluorescence reader. To perform the assay an 80 nM solution of BACE2 was prepared in assay buffer (assay buffer is 100 mM Na-acetate; 20 mM EDTA; 0.05% BSA; pH 4.5) and incubated at room temperature for 1 hour to activate the enzyme. 39 μl of the activated BACE2 was placed in each assay well, followed by 1 μl compound to be tested at an appropriate concentration in 100% DMSO. The plate was then mixed and incubated for 10 minutes at room temperature.
The assay readout is the rate of change of fluorescence intensity giving a relative measure of BACE2 activity. Small values correspond to high inhibition and larger values to low inhibition. […] IC50 values were determined using these assay values generated for a range of inhibitor concentrations and the curve fitting software XLfit (IDBS) using the Sigmoidal Dose-Response Model.

Row | SMILES | IC50
1 | CN1C(=O)C[C@@](C)(c2cccc(NC(=O)c3ncc(C(F)(F)F)cc3Cl)c2)N=C1N [Example 70, 3-Chloro-5-trifluoromethyl-pyridine-2-carboxylic acid [3-((S)-2-amino-1,4-dimethyl-6-oxo-1,4,5,6-tetrahydro-pyrimidin-4-yl)-phenyl]-amide] | 16 nM
2 | CN1C(=O)C(C)(C)[C@@](C)(c2cc(NC(=O)c3ncc(C(F)(F)F)cc3Cl)ccc2F)N=C1N [Example 118, 3-Chloro-5-trifluoromethyl-pyridine-2-carboxylic acid [3-((S)-2-amino-1,4,5,5-tetramethyl-6-oxo-1,4,5,6-tetrahydro-pyrimidin-4-yl)-4-fluoro-phenyl]amide] | 19 nM
3 | CN1C(=O)C[C@@](C)(c2cccc(NC(=O)c3ccccc3)c2)N=C1N [Example 34, N-[3-((S)-2-Amino-1,4-dimethyl-6-oxo-1,4,5,6-tetrahydro-pyrimidin-4-yl)-phenyl]-benzamide] | 200 nM
4 | Cc1cccnc1C(=O)Nc1ccc(F)c([C@@]2(C)N=C(N)N(C)C(=O)C2(C)C)c1 [Example 105, 3-Methyl-pyridine-2-carboxylic acid [3-((S)-2-amino-1,4,5,5-tetramethyl-6-oxo-1,4,5,6-tetrahydro-pyrimidin-4-yl)-4-fluoro-phenyl]amide] | 49 nM
5 | CN1C(=O)C[C@]2(CCc3ccc(NC(=O)c4ccccn4)cc32)N=C1N [Example 128, N-[(1S)-2′-amino-1′-methyl-6′-oxo-2,3,5′,6′-tetrahydro-1′H-spiro[indene-1,4′-pyrimidin]-6-yl]pyridine-2-carboxamide] | 1670 nM
6 | CN1C(=O)C(C)(C)[C@@](C)(c2cc(NC(=O)c3ccc(C(F)(F)F)cn3)ccc2F)N=C1N [Example 110, 5-Trifluoromethyl-pyridine-2-carboxylic acid [3-((S)-2-amino-1,4,5,5-tetramethyl-6-oxo-1,4,5,6-tetrahydro-pyrimidin-4-yl)-4-fluoro-phenyl]amide] | 20 nM
7 | Cc1cc(C(=O)Nc2cccc([C@]3(C)CC(=O)N(C)C(N)=N3)c2)c(C)s1 [Example 3, 2,5-Dimethyl-thiophene-3-carboxylic acid [3-((S)-2-amino-1,4-dimethyl-6-oxo-1,4,5,6-tetrahydro-pyrimidin-4-yl)-phenyl]amide] | 86 nM
8 | CN1C(=O)C(C)(C)[C@@](C)(c2cc(NC(=O)c3ccc(Cl)cn3)ccc2F)N=C1N [Example 53, 5-Chloro-pyridine-2-carboxylic acid [3-((S)-2-amino-1,4,5,5-tetramethyl-6-oxo-1,4,5,6-tetrahydro-pyrimidin-4-yl)-4-fluoro-phenyl]amide] | 8 nM
9 | CN1C(=O)C[C@@](C)(c2cccc(NC(=O)c3cn4ccccc4n3)c2)N=C1N [Example 9, Imidazo[1,2-a]pyridine-2-carboxylic acid [3-((S)-2-amino-1,4-dimethyl-6-oxo-1,4,5,6-tetrahydro-pyrimidin-4-yl)-phenyl]amide] | 110 nM
10 | Cc1cc(C(=O)Nc2cccc([C@]3(C)CC(=O)N(C)C(N)=N3)c2)n(C)n1 [Example 8, 2,5-Dimethyl-2H-pyrazole-3-carboxylic acid [3-((S)-2-amino-1,4-dimethyl-6-oxo-1,4,5,6-tetrahydro-pyrimidin-4-yl)-phenyl]amide] | 126 nM
11 | CN1C(=O)C(C)(C)[C@@](C)(c2cc(NC(=O)c3nccn3C)ccc2F)N=C1N [Example 111, 1-Methyl-1H-imidazole-2-carboxylic acid [3-((S)-2-amino-1,4,5,5-tetramethyl-6-oxo-1,4,5,6-tetrahydro-pyrimidin-4-yl)-4-fluoro-phenyl]amide] | 190 nM

Further lines, results first:

Row | IC50 | SMILES
12 | 7 nM | CC[C@@]1(c2cccc(NC(=O)c3ncc(Cl)cn3)c2)CC(=O)N(C)C(N)=N1 [Example 44, 5-Chloro-pyrimidine-2-carboxylic acid [3-((S)-2-amino-4-ethyl-1-methyl-6-oxo-1,4,5,6-tetrahydro-pyrimidin-4-yl)-phenyl]-amide]
13 | 50 nM | CN1C(=O)C[C@@](C)(c2cccc(NC(=O)c3ccc(Cl)cc3)c2)N=C1N [Example 18, N-[3-((S)-2-Amino-1,4-dimethyl-6-oxo-1,4,5,6-tetrahydro-pyrimidin-4-yl)-phenyl]-4-chloro-benzamide]
14 | 42 nM | CN1C(=O)C[C@@](C)(c2cccc(NC(=O)c3c[nH]c(=O)cn3)c2)N=C1N [Example 36, 5-Oxo-4,5-dihydro-pyrazine-2-carboxylic acid [3-((S)-2-amino-1,4-dimethyl-6-oxo-1,4,5,6-tetrahydro-pyrimidin-4-yl)-phenyl]-amide]
15 | 6420 nM | Cc1ncc(C(=O)Nc2cccc([C@]3(C)CC(=O)N(C)C(N)=N3)c2)cn1 [Example 35, 2-Methyl-pyrimidine-5-carboxylic acid [3-((S)-2-amino-1,4-dimethyl-6-oxo-1,4,5,6-tetrahydro-pyrimidin-4-yl)-phenyl]-amide]
16 | 300 nM | CC[C@@]1(c2cccc(NC(=O)c3ccc(F)cn3)c2)CC(=O)N(C)C(N)=N1 [Example 85, 5-Fluoro-pyridine-2-carboxylic acid [3-((S)-2-amino-4-ethyl-1-methyl-6-oxo-1,4,5,6-tetrahydro-pyrimidin-4-yl)-phenyl]-amide]
17 | 960 nM | CN1C(=O)C[C@@](C)(c2cccc(NC(=O)c3ccncc3)c2)N=C1N [Example 26, N-[3-((S)-2-Amino-1,4-dimethyl-6-oxo-1,4,5,6-tetrahydro-pyrimidin-4-yl)-phenyl]-isonicotinamide]
18 | 18 nM | CN1C(=O)C[C@@](C)(c2cccc(NC(=O)c3ncccc3Cl)c2)N=C1N [Example 28, 3-Chloro-pyridine-2-carboxylic acid [3-((S)-2-amino-1,4-dimethyl-6-oxo-1,4,5,6-tetrahydro-pyrimidin-4-yl)-phenyl]amide]
19 | 11 nM | CC[C@@]1(c2cccc(NC(=O)c3ccc(Cl)cn3)c2)CC(=O)N(C)C(N)=N1 [Example 39, 5-Chloro-pyridine-2-carboxylic acid [3-((S)-2-amino-4-ethyl-1-methyl-6-oxo-1,4,5,6-tetrahydro-pyrimidin-4-yl)-phenyl]-amide]
20 | 976 nM | CN1C(=O)C[C@@](C)(c2cccc(NC(=O)c3nc(Cl)ccc3Cl)c2)N=C1N [Example 54, 3,6-Dichloro-pyridine-2-carboxylic acid [3-((S)-2-amino-1,4-dimethyl-6-oxo-1,4,5,6-tetrahydro-pyrimidin-4-yl)-phenyl]-amide]
21 | 20 nM | CN1C(=O)C(C)(C)[C@@](C)(c2cccc(NC(=O)c3ccc(Cl)cn3)c2)N=C1N [Example 94, 5-Chloro-pyridine-2-carboxylic acid [3-((R)-2-amino-1,4,5,5-tetramethyl-6-oxo-1,4,5,6-tetrahydro-pyrimidin-4-yl)-phenyl]amide]
22 | 10 nM | C[C@@]1(c2cccc(NC(=O)c3ccc(Cl)cn3)c2)CC(=O)N(Cc2ccccc2)C(N)=N1 [Example 50, 5-Chloro-pyridine-2-carboxylic acid [3-((S)-2-amino-1-benzyl-4-methyl-6-oxo-1,4,5,6-tetrahydro-pyrimidin-4-yl)-phenyl]amide]
23 | 390 nM | Cc1cnc(C(=O)Nc2cccc([C@]3(C)CC(=O)N(C)C(N)=N3)c2)[nH]1 [Example 84, 4-Methyl-1H-imidazole-2-carboxylic acid [3-((S)-2-amino-1,4-dimethyl-6-oxo-1,4,5,6-tetrahydro-pyrimidin-4-yl)-phenyl]-amide]
24 | 14 nM | CN1C(=O)C[C@@](C)(c2cccc(NC(=O)c3ccc(Cl)s3)c2)N=C1N [Example 2, 5-Chloro-thiophene-2-carboxylic acid [3-((S)-2-amino-1,4-dimethyl-6-oxo-1,4,5,6-tetrahydro-pyrimidin-4-yl)-phenyl]amide]
25 | 125 nM | CC[C@@]1(c2cccc(NC(=O)c3cccc(Cl)n3)c2)CC(=O)N(C)C(N)=N1 [Example 42, 6-Chloro-pyridine-2-carboxylic acid [3-((S)-2-amino-4-ethyl-1-methyl-6-oxo-1,4,5,6-tetrahydro-pyrimidin-4-yl)-phenyl]-amide]
26 | 120 nM | Cc1ccc(C(=O)Nc2cccc([C@]3(C)CC(=O)N(C)C(N)=N3)c2)cc1 [Example 17, N-[3-((S)-2-Amino-1,4-dimethyl-6-oxo-1,4,5,6-tetrahydro-pyrimidin-4-yl)-phenyl]-4-methyl-benzamide]
